Measured values from US20220323455A1, “FUSED HETEROCYCLIC DERIVATIVES AS ANTIVIRAL AGENTS” (priority 2019, published 2022).

Assays:
[1] = system: HBV; test: HBV replication inhibition assay (BDNA assay) in HepG2.2.15 cells; type: cell-based, Hepatitis B virus; settings: 6 days, encapsidated HBV DNA in supernatant
Method in brief: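 HepG2.2.15 cells were dosed with serially diluted compound (0.5% DMSO), with compound and medium renewed at day 3. Day-6 supernatants were DNase-treated and proteinase K-lysed, and encapsidated HBV DNA was quantified by branched-DNA assay. Percent inhibition was set against DMSO controls and EC50 obtained by nonlinear fit.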

[2] = Cytotoxicity in HepG2.117 cells (ATPlite Luminescence Assay); type: cell-based; settings: human, incubated for 3 days, cell viability, mean value, read-out: TOX-HepG2.117 CC50 (μM, mean value)
Protocol: Cytotoxicity of the compounds was tested using HepG2 or HepG2.117 cells, incubated for 3 days in the presence of compounds. The viability of the cells was assessed using the PERKIN ELMER ATPlite Luminescence Assay System.”

[3] = system: HBV; test: Anti-HBV activity in HepG2.117 cell line (intracellular HBV DNA, real-time PCR); type: cell-based; settings: Hepatitis B virus, 72 h; HepG2.117 cells, 3 days of treatment, intracellular HBV DNA, mean value; read-out: HBV-AVE-HepG2.117 EC50 (μM, mean value)
Protocol: The anti HBV activity was measured using the HepG2.117 cell line, a stable, inducibly HBV producing cell line, which replicates HBV in the absence of doxicycline (Tet-off system). The HepG2 cell line is available from ATCC® under number HB-8065. Transfection of the HepG2 cell line can be as described in Sun and Nassal 2006 Journal of Hepatology 45 (2006) 636-645 “Stable HepG2- and Huh7-based human hepatoma cell lines for efficient regulated expression of infectious hepatitis B virus”.
For the antiviral assay, HBV replication was induced, followed by a treatment with serially diluted compound in 96-well plates. After 3 days of treatment, the antiviral activity was determined by quantification of intracellular HBV DNA using real-time PCR and an HBV specific primer set and probe.

C[C@@H]1Cc2nn3c(c2CN1C(=O)Nc1ccc(F)c(C#N)c1)C(F)(F)CC(O)(CO)CC3 (single isomer, unassigned) [Example 126, (3R,9S*)—N-(3-Cyano-4-fluorophenyl)-11,11-difluoro-9-hydroxy-9-(hydroxymethyl)-3-methyl-3,4,8,9,10,11-hexahydro-1H-pyrido[4′,3′:3,4]pyrazolo[1,5-a]azepine-2(7H)-carboxamide]
EC50 [1]: 5 nM

C[C@@H]1Cc2nn3c(c2CN1C(=O)Nc1ccnc(Br)c1F)C(F)(F)CC(O)(CF)CC3 (single isomer, unassigned) [Example 129, (3R,9S*)—N-(2-Bromo-3-fluoropyridin-4-yl)-11,11-difluoro-9-(fluoromethyl)-9-hydroxy-3-methyl-3,4,8,9,10,11-hexahydro-1H-pyrido[4′,3′:3,4]pyrazolo[1,5-a]azepine-2(7H)-carboxamide]
EC50 [1]: 6 nM

C[C@@H]1Cc2nn3c(c2CN1C(=O)Nc1ccc(F)c(C#N)c1)C(F)(F)CC(O)(CF)CC3 (single isomer, unassigned) [Example 130, (3R,9S*)—N-(3-Cyano-4-fluorophenyl)-11,11-difluoro-9-(fluoromethyl)-9-hydroxy-3-methyl-3,4,8,9,10,11-hexahydro-1H-pyrido[4′,3′:3,4]pyrazolo[1,5-a]azepine-2(7H)-carboxamide]
EC50 [1]: 2 nM

N#Cc1cc(NC(=O)N2CCc3nn4c(c3C2)C(F)(F)CC(CO)CC4)ccc1F (single isomer, unassigned) [Example 134, (S*)—N-(3-Cyano-4-fluorophenyl)-11,11-difluoro-9-(hydroxymethyl) -3,4,8,9,10,11-hexahydro-1H-pyrido[4′,3′:3,4]pyrazolo[1,5-a]azepine-2(7H)-carboxamide]
EC50 [1]: 17 nM

N#Cc1cc(NC(=O)N2CCc3nn4c(c3C2)C(F)(F)CC(CO)CC4)ccc1F (single isomer, unassigned) [Example 136, (R*)—N-(3-Cyano-4-fluorophenyl)-11,11-difluoro-9-(hydroxymethyl) -3,4,8,9,10,11-hexahydro-1H-pyrido[4′,3′:3,4]pyrazolo[1,5-a]azepine-2(7H)-carboxamide]
EC50 [1]: 5 nM

O=C(Nc1ccnc(Br)c1F)N1CCc2nn3c(c2C1)C(F)(F)CC(O)CC3 (single isomer, unassigned) [Example 137, (R*)—N-(2-Bromo-3-fluoropyridin-4-yl)-11,11-difluoro-9-hydroxy-3,4,8,9,10,11-hexahydro-1H-pyrido[4′,3′:3,4]pyrazolo[1,5-a]azepine-2(7H)-carboxamide]
EC50 [1]: 2 nM

N#Cc1cc(NC(=O)N2CCc3nn4c(c3C2)C(F)(F)CC(O)CC4)ccc1F (single isomer, unassigned) [Example 138, (R*)—N-(3-Cyano-4-fluorophenyl)-11,11-difluoro-9-hydroxy-3,4,8,9,10,11-hexahydro-1H-pyrido[4′,3′:3,4]pyrazolo[1,5-a]azepine-2(7H)-carboxamide]
EC50 [1]: 1 nM

O=C(Nc1ccnc(C(F)F)c1F)N1CCc2nn3c(c2C1)C(F)(F)CC(O)CC3 (single isomer, unassigned) [Example 139, (R*)—N-(2-(Difluoromethyl)-3-fluoropyridin-4-yl)-11,11-difluoro-9-hydroxy-3,4,8,9,10,11-hexahydro-1H-pyrido[4′,3′:3,4]pyrazolo[1,5-a]azepine-2(7H)-carboxamide]
EC50 [1]: 21 nM

O=C(Nc1ccnc(Br)c1F)N1CCc2nn3c(c2C1)C(F)(F)CC(O)CC3 (single isomer, unassigned) [Example 140, (S*)—N-(2-Bromo-3-fluoropyridin-4-yl)-11,11-difluoro-9-hydroxy-3,4,8,9,10,11-hexahydro-1H-pyrido[4′,3′:3,4]pyrazolo[1,5-a]azepine-2(7H)-carboxamide]
EC50 [1]: 27 nM

N#Cc1cc(NC(=O)N2CCc3nn4c(c3C2)C(F)(F)CC(O)CC4)ccc1F (single isomer, unassigned) [Example 141, (S*)—N-(3-Cyano-4-fluorophenyl)-11,11-difluoro-9-hydroxy-3,4,8,9,10,11-hexahydro-1H-pyrido[4′,3′:3,4]pyrazolo[1,5-a]azepine-2(7H)-carboxamide]
EC50 [1]: 16 nM

O=C(Nc1ccnc(C(F)F)c1F)N1CCc2nn3c(c2C1)C(F)(F)CC(O)CC3 (single isomer, unassigned) [Example 142, (S*)—N-(2-(Difluoromethyl)-3-fluoropyridin-4-yl)-11,11-difluoro-9-hydroxy-3,4,8,9,10,11-hexahydro-1H-pyrido[4′,3′:3,4]pyrazolo[1,5-a]azepine-2(7H)-carboxamide]
EC50 [1]: 46 nM

C[C@@H]1Cc2nn3c(c2CN1C(=O)c1ccc(Cl)c(Cl)c1)C(F)(F)CC[C@@H](O)C3 (single isomer, unassigned) [Example C8, (3,4-Dichlorophenyl)[(3R,8*R)-11,11-difluoro-8-hydroxy-3-methyl-1,3,4,7,8,9,10,11-octahydro-2H-pyrido[4′,3′:3,4]pyrazolo[1,5-a]azepin-2-yl]methanone]
CC50 at 3 days [2]: > 50 µM
EC50 [3]: 0.019 µM

C[C@@H]1Cc2nn3c(c2CN1C(=O)c1ccc(Cl)c(Cl)c1)C(F)(F)CC[C@H](O)C3 (single isomer, unassigned) [Example C9, (3,4-Dichlorophenyl)[(3R,8*S)-11,11-difluoro-8-hydroxy-3-methyl-1,3,4,7,8,9,10,11-octahydro-2H-pyrido[4′,3′:3,4]pyrazolo[1,5-a]azepin-2-yl]methanone]
CC50 at 3 days [2]: > 50 µM
EC50 [3]: 0.018 µM

C#C[C@]1(O)CCC(F)(F)c2c3c(nn2C1)C[C@@H](C)N(C(=O)c1ccc(Cl)c(Cl)c1)C3 (single isomer, unassigned) [Example C10, (3,4-Dichlorophenyl)[(3R,8*R)-8-ethynyl-11,11-difluoro-8-hydroxy-3-methyl-1,3,4,7,8,9,10,11-octahydro-2H-pyrido[4′,3′:3,4]pyrazolo[1,5-a]azepin-2-yl]methanone]
CC50 at 3 days [2]: 36.9 µM
EC50 [3]: 0.078 µM

C#C[C@@]1(O)CCC(F)(F)c2c3c(nn2C1)C[C@@H](C)N(C(=O)c1ccc(Cl)c(Cl)c1)C3 (single isomer, unassigned) [Example C11, (3,4-Dichlorophenyl)[(3R,8*S)-8-ethynyl-11,11-difluoro-8-hydroxy-3-methyl-1,3,4,7,8,9,10,11-octahydro-2H-pyrido[4′,3′:3,4]pyrazolo[1,5-a]azepin-2-yl]methanone]
CC50 at 3 days [2]: 33.8 µM
EC50 [3]: 0.257 µM

C[C@@H]1Cc2nn3c(c2CN1C(=O)c1ccc(Cl)c(Cl)c1)C(F)(F)CC[C@@H](CO)C3 (single isomer, unassigned) [Example C12, (3,4-Dichlorophenyl)[(3R,8*R)-11,11-difluoro-8-(hydroxymethyl)-3-methyl-1,3,4,7,8,9,10,11-octahydro-2H-pyrido[4′,3′:3,4]pyrazolo[1,5-a]azepin-2-yl]methanone]
CC50 at 3 days [2]: 32.7 µM
EC50 [3]: 0.048 µM

C[C@@H]1Cc2nn3c(c2CN1C(=O)c1ccc(Cl)c(Cl)c1)C(F)(F)CC[C@H](CO)C3 (single isomer, unassigned) [Example C13, (3,4-Dichlorophenyl)[(3R,8*S)-11,11-difluoro-8-(hydroxymethyl)-3-methyl-1,3,4,7,8,9,10,11-octahydro-2H-pyrido[4′,3′:3,4]pyrazolo[1,5-a]azepin-2-yl]methanone]
CC50 at 3 days [2]: 33.6 µM
EC50 [3]: < 0.195 µM

C[C@@H]1Cc2nn3c(c2CN1C(=O)c1ccc(Cl)c(Cl)c1)C(F)(F)CC[C@@H](C(C)(C)O)C3 (single isomer, unassigned) [Example C14, (3,4-Dichlorophenyl)[(3R,8*R)-11,11-difluoro-8-(2-hydroxypropan-2-yl)-3-methyl-1,3,4,7,8,9,10,11-octahydro-2H-pyrido[4′,3′:3,4]pyrazolo[1,5-a]azepin-2-yl]methanone]
CC50 at 3 days [2]: 5.76 µM
EC50 [3]: < 0.195 µM

CC1Cc2nn3c(c2CN1C(=O)Nc1ccc(F)c(C#N)c1)C(F)(F)C[C@H](CO)CC3 (some centres unmarked) [Example 131]
EC50 ([1]; Hepatitis B virus, HepG2.2.15, 144 h): 3 nM

COc1ccc(CN2CCn3nc4c(c3C(F)(F)C2)CN(C(=O)c2ccc(Cl)c(Cl)c2)[C@H](C)C4)cc1 [Example C1, (3,4-Dichlorophenyl){(3R)-11,11-difluoro-9-[(4-methoxyphenyl)methyl]-3-methyl-1,3,4,7,8,9,10,11-octahydro-2H-pyrido[4′,3′:3,4]pyrazolo[1,5-d][1,4]diazepin-2-yl}methanone]
CC50 at 3 days [2]: 15.7 µM
EC50 [3]: 0.274 µM

C[C@@H]1Cc2nn3c(c2CN1C(=O)c1ccc(Cl)c(Cl)c1)C(F)(F)CNCC3 [Example C2, (3,4-Dichlorophenyl)[(3R)-11,11-difluoro-3-methyl-1,3,4,7,8,9,10,11-octahydro-2H-pyrido[4′,3′:3,4]pyrazolo[1,5-d][1,4]diazepin-2-yl]methanone]
CC50 at 3 days [2]: > 50 µM
EC50 [3]: 0.088 µM

C[C@@H]1Cc2nn3c(c2CN1C(=O)c1ccc(Cl)c(Cl)c1)C(F)(F)CN(C)CC3 [Example C3, (3,4-Dichlorophenyl)[(3R)-11,11-difluoro-3,9-dimethyl-1,3,4,7,8,9,10,11-octahydro-2H-pyrido[4′,3′:3,4]pyrazolo[1,5-d][1,4]diazepin-2-yl]methanone]
CC50 at 3 days [2]: > 50 µM
EC50 [3]: 0.032 µM
